Laboratory results taken from patent US20230138327A1, “COMPOSITIONS AND METHODS CONTAINING REDUCED NICOTINAMIDE RIBOSIDE FOR PREVENTION AND TREATMENT OF PANCREATIC DISEASES AND CONDITIONS” (SOCIETE DES PRODUITS NESTLE S.A., priority 2020, published 2023).

Columns and labels:
[1] = Circulating NRH, NR and NAM in mice after intraperitoneal injection; type: in vivo
Excerpt: (§1) Levels of NRH and other NAD-related metabolites in biological samples were obtained by using a cold liquid-liquid extraction using a mixture of methanol:water:chloroform in 5:3:5 (v/v), from which the polar phase was recovered for hydrophilic interaction ultra-high performance liquid chromatography mass spectrometry (UHPLC-MS) analysis. The UHPLC consisted of a binary pump, a cooled autosampler, and a column oven (DIONEX Ultimate 3000 UHPLC+ Focused, Thermo Scientific), connected to a triple quadrupole spectrometer (TSQ Vantage, Thermo Scientific) equipped with a heated electrospray ionisation (H-ESI) source. Of each sample, 2 μL were injected into the analytical column (2.1 mm×150 mm, 5 μm pore size, 200 Å HILICON iHILIC®-Fusion(P)), guarded by a pre-column (2.1 mm×20 mm, 200 Å HILICON iHILIC®-Fusion(P) Guard Kit) operating at 35° C. The mobile phase (10 mM ammonium acetate at pH 9, A, and acetonitrile, B) was pumped at 0.25 mL/min flow rate over a linear gradient of decreasing organic solvent (0.5-16 min, 90-25% B), followed by re-equilibration for a total run time of 30 min. The MS operated in positive mode at 3500 V with multiple reaction monitoring (MRM). The software Xcalibur v4.1.31.9 (Thermo Scientific) was used for instrument control, data acquisition and processing. Retention time and mass detection was confirmed by authentic standards.
The above results prompted us to test whether NRH could act as an effective NAD+ precursor in vivo. For this, we first intraperitoneally (IP) injected mice with either NR or NRH (500 mg/kg). […] Importantly, NRH was detectable in circulation after IP injection.

[2] = test system: INS-1E cells; assay: Inflammatory cytokine (IL-1 b)-induced pancreatic β-cell death, cell viability; type: cell-based; settings: IL-1 b 0.25 ng/ml, 24 hours, NRH 0.1 mM
Experimental: (§2) INS-1E cells were treated with Interleukin 1 b (IL-1 b; 0.25 ng/ml) for 24 hrs in the presence or absence of NRH (0.1 mM). PBS was used as vehicle for NRH. After 24 hrs, cell viability was evaluated by luminescence using a commercial kit (Cell Title-Glow; Promega). All results are expressed as mean+/−SEM of n=6 experiments. * indicates P<0.05 vs. the respective vehicle treated group.
INS-1E cells were treated with Interleukin 1 b (IL-1 b; 0.25 ng/ml) for 24 hours in the presence or absence of NRH (0.1 mM). PBS was used as vehicle for NRH. After 24 hours, cell viability was evaluated by luminescence using a commercial kit (Cell Title-Glow; Promega).

[3] = test system: primary hepatocytes from control or NRK1 knockout (NRK1KO) mice; assay: NAD+ levels in primary hepatocytes from control or NRK1 knockout mice; type: cell-based; settings: 1 hour of treatment
Excerpt: The action of NRH was also NAMPT-independent, based on experiments using FK866, a NAMPT inhibitor. If NRH led to NAD+ synthesis via the formation of NMNH, this hypothetical path would require the phosphorylation of NRH into NMNH. Given the essential and rate-limiting role of NRK1 in NR phosphorylation, we wondered whether the ability of NRH to boost NAD+ levels was NRK1 dependent. To answer this question, we evaluated NRH action in primary hepatocytes from either control or NRK1 knockout (NRK1KO) mice. […] Further, they rule out the possibility that NRH-induced NAD+ […] is driven by NRH oxidation into NR.

[4] = Experimental: (§3) NR degradation to NAM has been proposed as a limitation for its pharmacological efficacy. To evaluate whether NRH was also susceptible to degradation to NAM, we spiked NRH or NR in isolated mouse plasma. […] We also tested the stability of NRH in other matrixes. […] Finally, we also certified NRH stability in water (pH=7, at room temperature) for 48 h.
[5] = test system: INS-1E cells; assay: Oxidative stress (H2O2)-induced pancreatic β-cell death, cell viability; type: cell-based; settings: H2O2 0.4 mM, 24 hours, NRH 0.1 mM
Experimental: as §2, with “hydrogen peroxide (H2O2; 0.4 mM)” for “Interleukin 1 b (IL-1 b; 0.25 ng/ml)”, “lumiscence” for “luminescence”, “n=5” for “n=6”
INS-1E cells were treated with hydrogen peroxide (H2O2; 0.4 mM) for 24 hours in the presence or absence of NRH (0.1 mM). PBS was used as vehicle for NRH. After 24 hours, cell viability was evaluated by luminescence using a commercial kit (Cell Title-Glow; Promega).

[6] = test system: INS1-cells; assay: NAD+ levels in INS1-cells after NRH treatment; type: cell-based
[7] = test system: C2C12 myotubes; assay: NAD+ levels in C2C12 myotubes after NRH treatment; type: cell-based
[8] = Stability in water; type: physicochemical; settings: pH=7, at room temperature
Experimental: as §3

[9] = test system: 3T3 fibroblasts; assay: NAD+ levels in 3T3 fibroblasts after NRH treatment; type: cell-based
[10] = test system: mice; assay: Hepatic NAD+ levels in mice after oral administration; type: in vivo
Experimental: 8 week-old C57BI/6NTac mice were orally gavaged with either saline (as vehicle), NR (500 mg/kg) or NRH (500 mg/kg). After 1 hour, liver, skeletal muscle and kidney NAD levels were evaluated. All results are expressed as mean +/−SEM of n=5 mice per group. * indicates statistical difference at p<0.05 vs. vs. saline-treated mice. #indicates statistical difference at p<0.05 vs. NR treated mice.
(§4) Oral administration of NRH led to very similar results to those observed after IP administration. […] NRH was detectable in plasma 1 h after oral administration. In contrast, NR levels were undetectable at 1 h after NR administration.

[11] = Plasma NRH, NR and NAM in mice after oral administration; type: in vivo
Excerpt: as §1, §4

NC(=O)C1=CN([C@@H]2O[C@H](CO)[C@@H](O)[C@H]2O)C=CC1 [NRH]
NAM levels in circulation ([1]; mice, IP 500 mg/kg): only a very mild increase
NR in circulation ([1]; mouse, in vivo, ip): much higher levels than those detected after NR injection itself
NRH in circulation ([1]; mouse, in vivo, ip): detectable
Cell viability under Interleukin 1 b [2]: protects against inflammatory citokyne-induced pancreatic β-cell death
NAD+ levels in NRK1KO derived primary hepatocytes [3]: not affected by NRK1 deficiency
Degradation to NAM in FBS supplemented media [4]: did not degrade to NAM
Cell viability under hydrogen peroxide [5]: protects against oxidative stress-induced pancreatic β-cell death
NAD+ levels [6]: highly elevated
NAD+ levels [7]: highly elevated
Stability in water, duration [8]: 48 h
NAD+ levels [9]: highly elevated
Effect on hepatic NAD+ levels compared with NR [10]: more potent effect on hepatic NAD+ levels than NR
NRH concentration in plasma ([11]; mice, after oral gavage): 11.16 ± 1.74 µM
Administered compound in plasma ([11]; mouse, in vivo, po): detectable
